Source: ChEMBL document CHEMBL5678818, “Discovery of potent SOS1 inhibitors that block RAS activation via disruption of the RAS-SOS1 interaction” (Proc Natl Acad Sci U S A, 2019)

Key:
[1] = biological target: Tyrosine-protein kinase ABL2 (Homo sapiens) (UniProt P42684); assay: Inhibition of ABL2 (unknown origin) assessed as residual activity at 1000 nM by KINOMEscan analysis relative to control
[2] = biological target: T1, Ephrin type-A receptor 6 (Homo sapiens) (UniProt Q9UF33); assay: Inhibition of EPHA6 (unknown origin) assessed as residual activity at 1000 nM by KINOMEscan analysis relative to control
T1 sequence (whole entry): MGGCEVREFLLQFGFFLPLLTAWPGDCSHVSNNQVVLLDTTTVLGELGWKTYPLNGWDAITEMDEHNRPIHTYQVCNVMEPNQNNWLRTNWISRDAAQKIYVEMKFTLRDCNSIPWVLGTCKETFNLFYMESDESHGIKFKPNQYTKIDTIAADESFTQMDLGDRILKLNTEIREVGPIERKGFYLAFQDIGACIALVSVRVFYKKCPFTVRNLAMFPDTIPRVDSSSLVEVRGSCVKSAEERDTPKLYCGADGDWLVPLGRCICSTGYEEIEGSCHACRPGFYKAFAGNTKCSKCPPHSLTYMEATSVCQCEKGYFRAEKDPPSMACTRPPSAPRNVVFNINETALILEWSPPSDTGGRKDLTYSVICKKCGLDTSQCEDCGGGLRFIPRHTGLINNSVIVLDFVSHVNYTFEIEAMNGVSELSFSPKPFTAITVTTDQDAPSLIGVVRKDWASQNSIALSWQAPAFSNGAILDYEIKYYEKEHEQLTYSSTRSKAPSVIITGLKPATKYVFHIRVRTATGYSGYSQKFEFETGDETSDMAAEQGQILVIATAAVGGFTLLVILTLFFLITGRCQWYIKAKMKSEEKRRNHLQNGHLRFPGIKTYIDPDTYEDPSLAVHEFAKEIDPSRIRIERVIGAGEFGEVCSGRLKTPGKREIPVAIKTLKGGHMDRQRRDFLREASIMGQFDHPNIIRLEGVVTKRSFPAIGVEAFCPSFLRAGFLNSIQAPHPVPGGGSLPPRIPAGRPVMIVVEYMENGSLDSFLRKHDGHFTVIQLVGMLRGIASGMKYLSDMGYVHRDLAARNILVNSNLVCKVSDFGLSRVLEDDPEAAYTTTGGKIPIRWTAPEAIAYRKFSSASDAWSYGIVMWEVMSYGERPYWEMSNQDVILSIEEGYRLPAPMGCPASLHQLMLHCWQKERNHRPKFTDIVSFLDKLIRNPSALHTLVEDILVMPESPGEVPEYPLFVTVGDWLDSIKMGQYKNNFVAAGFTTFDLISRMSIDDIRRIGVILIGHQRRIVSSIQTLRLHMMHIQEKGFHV

[3] = biological target: T2, Mitogen-activated protein kinase kinase kinase kinase 3 (Homo sapiens) (UniProt Q8IVH8); assay: Inhibition of MAP4K3 (unknown origin) assessed as residual activity at 1000 nM by KINOMEscan analysis relative to control
T2 sequence (whole entry): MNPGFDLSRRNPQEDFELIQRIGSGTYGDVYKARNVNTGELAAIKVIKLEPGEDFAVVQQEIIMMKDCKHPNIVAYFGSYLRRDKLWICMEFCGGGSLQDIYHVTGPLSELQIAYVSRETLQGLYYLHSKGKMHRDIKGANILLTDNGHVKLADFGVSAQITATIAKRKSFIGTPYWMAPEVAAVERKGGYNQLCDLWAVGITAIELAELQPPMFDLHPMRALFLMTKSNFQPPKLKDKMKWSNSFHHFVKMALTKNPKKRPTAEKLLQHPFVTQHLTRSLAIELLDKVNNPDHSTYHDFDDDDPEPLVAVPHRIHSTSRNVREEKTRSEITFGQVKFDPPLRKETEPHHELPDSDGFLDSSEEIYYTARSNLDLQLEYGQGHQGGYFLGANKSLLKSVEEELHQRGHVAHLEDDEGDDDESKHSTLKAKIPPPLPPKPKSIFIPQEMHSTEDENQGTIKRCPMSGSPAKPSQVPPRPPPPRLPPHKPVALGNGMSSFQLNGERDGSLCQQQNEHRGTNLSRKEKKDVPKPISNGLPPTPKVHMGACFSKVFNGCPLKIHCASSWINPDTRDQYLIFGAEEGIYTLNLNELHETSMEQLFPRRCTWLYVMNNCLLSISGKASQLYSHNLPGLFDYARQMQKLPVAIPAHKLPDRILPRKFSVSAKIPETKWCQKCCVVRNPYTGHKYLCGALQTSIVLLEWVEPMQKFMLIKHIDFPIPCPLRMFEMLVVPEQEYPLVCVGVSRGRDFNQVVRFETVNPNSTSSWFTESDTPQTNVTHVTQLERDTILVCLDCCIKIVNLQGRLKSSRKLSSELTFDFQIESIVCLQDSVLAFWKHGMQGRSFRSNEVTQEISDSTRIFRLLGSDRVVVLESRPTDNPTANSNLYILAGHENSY

[4] = biological target: T3, Serine/threonine-protein kinase Nek2 (Homo sapiens) (UniProt P51955); assay: Inhibition of NEK2 (unknown origin) assessed as residual activity at 1000 nM by KINOMEscan analysis relative to control
T3 sequence (whole entry): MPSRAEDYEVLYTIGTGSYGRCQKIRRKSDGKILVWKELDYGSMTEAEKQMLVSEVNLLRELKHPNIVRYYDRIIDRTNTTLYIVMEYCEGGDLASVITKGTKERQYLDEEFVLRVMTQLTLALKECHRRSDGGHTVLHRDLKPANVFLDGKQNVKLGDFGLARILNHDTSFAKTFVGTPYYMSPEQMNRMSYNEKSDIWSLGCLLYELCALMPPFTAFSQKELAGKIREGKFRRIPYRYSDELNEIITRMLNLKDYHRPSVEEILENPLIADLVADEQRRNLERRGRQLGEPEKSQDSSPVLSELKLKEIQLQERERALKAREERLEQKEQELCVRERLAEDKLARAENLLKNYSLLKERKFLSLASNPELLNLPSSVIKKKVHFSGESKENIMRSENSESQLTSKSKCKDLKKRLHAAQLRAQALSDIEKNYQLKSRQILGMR

[5] = biological target: Ribosomal protein S6 kinase alpha-5 (Homo sapiens) (UniProt O75582); assay: Inhibition of C-terminal RPS6KA5 kinetic domain 2 (unknown origin) assessed as residual activity at 1000 nM by KINOMEscan analysis relative to control
Sequence of Ribosomal protein S6 kinase alpha-5 (Homo sapiens) (O75582 whole entry, looked up, the tested form may be a part): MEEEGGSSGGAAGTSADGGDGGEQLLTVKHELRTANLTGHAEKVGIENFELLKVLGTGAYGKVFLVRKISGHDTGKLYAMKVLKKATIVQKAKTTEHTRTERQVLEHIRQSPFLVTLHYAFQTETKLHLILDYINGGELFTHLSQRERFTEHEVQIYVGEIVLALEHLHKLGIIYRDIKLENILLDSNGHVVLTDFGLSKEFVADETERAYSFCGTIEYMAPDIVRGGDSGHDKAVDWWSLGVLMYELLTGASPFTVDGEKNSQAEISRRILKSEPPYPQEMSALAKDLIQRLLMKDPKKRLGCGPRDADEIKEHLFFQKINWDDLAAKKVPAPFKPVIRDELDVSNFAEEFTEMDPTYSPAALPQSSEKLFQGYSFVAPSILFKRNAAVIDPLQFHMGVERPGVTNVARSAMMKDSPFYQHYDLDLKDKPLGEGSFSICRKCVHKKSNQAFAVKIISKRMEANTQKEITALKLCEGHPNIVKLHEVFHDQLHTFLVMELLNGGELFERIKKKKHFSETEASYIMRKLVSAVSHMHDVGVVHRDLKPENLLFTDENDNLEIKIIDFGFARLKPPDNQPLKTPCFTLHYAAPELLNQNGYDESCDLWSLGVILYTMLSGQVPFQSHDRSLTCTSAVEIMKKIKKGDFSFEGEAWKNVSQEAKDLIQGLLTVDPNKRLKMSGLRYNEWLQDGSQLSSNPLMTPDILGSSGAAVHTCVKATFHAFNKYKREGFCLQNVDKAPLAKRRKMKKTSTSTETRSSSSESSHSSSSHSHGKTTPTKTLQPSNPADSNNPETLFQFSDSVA

Sequence of Tyrosine-protein kinase ABL2 (Homo sapiens) (P42684 whole entry): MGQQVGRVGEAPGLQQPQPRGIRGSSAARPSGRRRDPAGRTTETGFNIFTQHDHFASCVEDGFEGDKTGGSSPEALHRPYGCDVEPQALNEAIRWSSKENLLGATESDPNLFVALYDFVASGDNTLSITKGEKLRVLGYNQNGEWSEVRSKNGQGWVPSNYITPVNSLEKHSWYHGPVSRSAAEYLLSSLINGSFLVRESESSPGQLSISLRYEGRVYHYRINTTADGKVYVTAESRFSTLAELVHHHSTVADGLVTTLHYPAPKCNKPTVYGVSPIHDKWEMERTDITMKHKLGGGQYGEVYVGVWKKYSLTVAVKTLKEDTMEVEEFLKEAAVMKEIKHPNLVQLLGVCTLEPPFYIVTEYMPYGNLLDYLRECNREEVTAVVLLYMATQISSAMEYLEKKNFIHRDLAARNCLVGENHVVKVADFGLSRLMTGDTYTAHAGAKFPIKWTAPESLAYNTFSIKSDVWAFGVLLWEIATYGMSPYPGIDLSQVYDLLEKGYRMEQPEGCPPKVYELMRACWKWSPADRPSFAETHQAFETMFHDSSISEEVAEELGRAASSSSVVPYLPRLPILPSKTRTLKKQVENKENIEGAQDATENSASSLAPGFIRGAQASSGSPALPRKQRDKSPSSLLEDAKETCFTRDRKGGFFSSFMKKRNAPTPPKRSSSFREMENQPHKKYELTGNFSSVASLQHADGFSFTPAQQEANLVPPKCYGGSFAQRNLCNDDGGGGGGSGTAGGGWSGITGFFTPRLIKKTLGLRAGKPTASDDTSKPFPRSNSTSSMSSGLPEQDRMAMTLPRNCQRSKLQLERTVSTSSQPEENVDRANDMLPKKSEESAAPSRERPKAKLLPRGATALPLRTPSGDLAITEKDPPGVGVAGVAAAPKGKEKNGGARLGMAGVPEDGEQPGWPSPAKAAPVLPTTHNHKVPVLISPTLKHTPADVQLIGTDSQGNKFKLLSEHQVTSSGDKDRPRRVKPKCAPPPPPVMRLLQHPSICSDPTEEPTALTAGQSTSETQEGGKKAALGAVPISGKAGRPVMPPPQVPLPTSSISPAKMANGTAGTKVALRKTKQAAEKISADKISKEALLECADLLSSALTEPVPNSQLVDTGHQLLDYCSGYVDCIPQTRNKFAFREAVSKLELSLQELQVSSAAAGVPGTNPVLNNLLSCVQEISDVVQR

## COc1cc2nc(C)nc(N[C@H](C)c3cccc(-c4cn[nH]c4)c3)c2cc1OC
[1]
  Activity: 73%
[2]
  Activity: 96%
[3]
  Activity: 90%
[4]
  Activity: 89%
[5]
  Activity: 100%

## COc1cc2ncnc(N[C@H](C)c3cccc4ccccc34)c2cc1OC
[1]
  Activity: 100%
[2]
  Activity: 88%
[3]
  Activity: 100%
[4]
  Activity: 98%
[5]
  Activity: 92%
